Test results: patent publication US8143263B2, “Therapeutic agents” (Astrazeneca AB, priority 2008, dated 2012)

Biological target: T1, recombinant human pancreatic GLK (Homo sapiens, UniProt P35557)
T1 sequence (P35557 1-465): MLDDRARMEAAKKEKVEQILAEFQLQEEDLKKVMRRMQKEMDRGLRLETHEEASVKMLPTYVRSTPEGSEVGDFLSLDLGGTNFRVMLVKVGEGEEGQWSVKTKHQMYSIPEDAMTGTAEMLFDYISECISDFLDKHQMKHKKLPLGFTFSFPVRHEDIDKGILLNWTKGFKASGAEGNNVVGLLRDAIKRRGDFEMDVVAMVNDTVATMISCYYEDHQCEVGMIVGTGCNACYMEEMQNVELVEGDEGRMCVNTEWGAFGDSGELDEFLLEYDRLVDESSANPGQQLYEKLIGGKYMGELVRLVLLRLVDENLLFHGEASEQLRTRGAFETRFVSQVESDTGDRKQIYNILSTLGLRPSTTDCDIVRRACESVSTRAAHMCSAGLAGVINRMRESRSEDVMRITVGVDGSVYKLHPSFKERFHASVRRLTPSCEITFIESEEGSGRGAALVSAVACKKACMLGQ
Test: biochemical

Point of comparison: `CCOC[C@H](Oc1ncnc2c1cnn2-c1ncccc1Cl)C(=O)Nc1ccccn1` [Example 127e, (2S)-2-[1-(3-chloro-2-pyridyl)pyrazolo[4,5-e]pyrimidin-4-yl]oxy-3-ethoxy-N-(2-pyridyl)propanamide], EC50 0.55 µM. Against it:
- CCOC[C@H](Oc1ncnc2c1cnn2-c1ccccc1Cl)C(=O)Nc1cnc(C)cn1 [Example 105, (2S)-2-[1-(2-chlorophenyl)pyrazolo[4,5-e]pyrimidin-4-yl]oxy-3-ethoxy-N-(5-methylpyrazin-2-yl)propanamide] — within 1.5-fold, 0.51 µM
- Cc1cnc(NC(=O)[C@H](COC(C)C)Oc2ncnc3c2cnn3-c2nccnc2C)cn1 [Example 106, (2S)-3-Isopropoxy-N-(5-methylpyrazin-2-yl)-2-(1-(3-methylpyrazin-2-yl)-1H-pyrazolo[3,4-d]pyrimidin-4-yloxy)propanamide] — 13-fold higher, 6.9 µM
- COC[C@H](Oc1ncnc2c1cnn2-c1ccccc1)C(=O)Nc1ccc(C)cn1 [Example 107, (S)-3-Methoxy-N-(5-methylpyridin-2-yl)-2-(1-phenyl-1H-pyrazolo[3,4-d]pyrimidin-4-yloxy)propanamide] — 6.5-fold higher, 3.6 µM
- CC(C)OCC(Oc1ncnc2c1cnn2-c1ccccc1Cl)C(=O)Nc1cnccn1 (stereo not drawn) [Example 108, 2-[1-(2-Chlorophenyl)pyrazolo[4,5-e]pyrimidin-4-yl]oxy-3-isopropoxy-N-pyrazin-2-yl-propanamide] — 2.4-fold higher, 1.3 µM
- Cc1nnc(NC(=O)C(COC(C)C)Oc2ncnc3c2cnn3-c2ccccc2Cl)s1 (stereo not drawn) [Example 109, 2-[1-(2-chlorophenyl)pyrazolo[4,5-e]pyrimidin-4-yl]oxy-3-isopropoxy-N-(5-methyl-1,3,4-thiadiazol-2-yl)propanamide] — 5.8-fold higher, 3.2 µM
- Cc1cc(NC(=O)C(COC(C)C)Oc2ncnc3c2cnn3-c2ccccc2Cl)no1 (stereo not drawn) [Example 110, 2-[1-(2-chlorophenyl)pyrazolo[4,5-e]pyrimidin-4-yl]oxy-3-isopropoxy-N-(5-methylisoxazol-3-yl)propanamide] — 1.8-fold higher, 1 µM
- Cc1cnc(NC(=O)C(COC(C)C)Oc2ncnc3c2cnn3-c2ccccc2Cl)s1 (stereo not drawn) [Example 111, 2-[1-(2-chlorophenyl)pyrazolo[4,5-e]pyrimidin-4-yl]oxy-3-isopropoxy-N-(5-methylthiazol-2-yl)propanamide] — 1.7-fold lower, 0.33 µM
- Cc1cnc(NC(=O)[C@H](COC(C)C)Oc2ncnc3c2cnn3-c2ccccc2Cl)s1 [Example 111a, (2S)-2-[1-(2-chlorophenyl)pyrazolo[4,5-e]pyrimidin-4-yl]oxy-3-isopropoxy-N-(5-methylthiazol-2-yl)propanamide] — 2.6-fold lower, 0.21 µM
- CC(C)OCC(Oc1ncnc2c1cnn2-c1ccccc1Cl)C(=O)Nc1ccc(F)cn1 (stereo not drawn) [Example 112, 2-[1-(2-chlorophenyl)pyrazolo[4,5-e]pyrimidin-4-yl]oxy-N-(5-fluoro-2-pyridyl)-3-isopropoxy-propanamide] — 2.1-fold lower, 0.26 µM
- CC(C)OC[C@H](Oc1ncnc2c1cnn2-c1ccccc1Cl)C(=O)Nc1ccc(F)cn1 [Example 112a, (2S)-2-[1-(2-chlorophenyl)pyrazolo[4,5-e]pyrimidin-4-yl]oxy-N-(5-fluoro-2-pyridyl)-3-isopropoxy-propanamide] — 2.5-fold lower, 0.22 µM
- CC(C)OCC(Oc1ncnc2c1cnn2-c1ccccc1Cl)C(=O)Nc1ccc(C#N)cn1 (stereo not drawn) [Example 113, 2-[1-(2-chlorophenyl)pyrazolo[4,5-e]pyrimidin-4-yl]oxy-N-(5-cyano-2-pyridyl)-3-isopropoxy-propanamide] — 1.8-fold lower, 0.3 µM
- CC(C)OC[C@H](Oc1ncnc2c1cnn2-c1ccccc1Cl)C(=O)Nc1ccc(C#N)cn1 [Example 113a, (2S)-2-[1-(2-chlorophenyl)pyrazolo[4,5-e]pyrimidin-4-yl]oxy-N-(5-cyano-2-pyridyl)-3-isopropoxy-propanamide] — 1.8-fold lower, 0.3 µM
- CC(C)OCC(Oc1ncnc2c1cnn2-c1ccccc1Cl)C(=O)Nc1ncns1 (stereo not drawn) [Example 114, 2-[1-(2-chlorophenyl)pyrazolo[4,5-e]pyrimidin-4-yl]oxy-3-isopropoxy-N-(1,2,4-thiadiazol-5-yl)propanamide] — 3.8-fold higher, 2.1 µM
- CC(C)OCC(Oc1ncnc2c1cnn2-c1ccccc1Cl)C(=O)Nc1ccc(Cl)cn1 (stereo not drawn) [Example 115, 2-[1-(2-chlorophenyl)pyrazolo[4,5-e]pyrimidin-4-yl]oxy-N-(5-chloro-2-pyridyl)-3-isopropoxy-propanamide] — 5-fold lower, 0.11 µM
- CC(C)OC[C@H](Oc1ncnc2c1cnn2-c1ccccc1Cl)C(=O)Nc1ccc(Cl)cn1 [Example 115a, (2S)-2-[1-(2-chlorophenyl)pyrazolo[4,5-e]pyrimidin-4-yl]oxy-N-(5-chloro-2-pyridyl)-3-isopropoxy-propanamide] — 5.6-fold lower, 0.098 µM
- Cc1ccnc(NC(=O)C(COC(C)C)Oc2ncnc3c2cnn3-c2ccccc2Cl)c1 (stereo not drawn) [Example 116, 2-[1-(2-chlorophenyl)pyrazolo[4,5-e]pyrimidin-4-yl]oxy-3-isopropoxy-N-(4-methyl-2-pyridyl)propanamide] — 4.2-fold higher, 2.3 µM
- CC(C)OCC(Oc1ncnc2c1cnn2-c1ccccc1Cl)C(=O)Nc1nncs1 (stereo not drawn) [Example 117, 2-[1-(2-chlorophenyl)pyrazolo[4,5-e]pyrimidin-4-yl]oxy-3-isopropoxy-N-(1,3,4-thiadiazol-2-yl)propanamide] — 12-fold higher, 6.8 µM
- CC(C)OCC(Oc1ncnc2c1cnn2-c1ccccc1Cl)C(=O)Nc1ccccn1 (stereo not drawn) [Example 118, 2-[1-(2-chlorophenyl)pyrazolo[4,5-e]pyrimidin-4-yl]oxy-3-isopropoxy-N-(2-pyridyl)propanamide] — 3.7-fold lower, 0.15 µM
- CC(C)OC[C@H](Oc1ncnc2c1cnn2-c1ccccc1Cl)C(=O)Nc1ccccn1 [Example 118a, (2S)-2-[1-(2-chlorophenyl)pyrazolo[4,5-e]pyrimidin-4-yl]oxy-3-isopropoxy-N-(2-pyridyl)propanamide] — 4.6-fold lower, 0.12 µM
- CC(C)OCC(Oc1ncnc2c1cnn2-c1ccccc1Cl)C(=O)Nc1ccon1 (stereo not drawn) [Example 119, 2-[1-(2-chlorophenyl)pyrazolo[4,5-e]pyrimidin-4-yl]oxy-3-isopropoxy-N-isoxazol-3-yl-propanamide] — 2.2-fold higher, 1.2 µM
- CC(C)OCC(Oc1ncnc2c1cnn2-c1ccccc1Cl)C(=O)Nc1ccncn1 (stereo not drawn) [Example 120, 2-[1-(2-chlorophenyl)pyrazolo[4,5-e]pyrimidin-4-yl]oxy-3-isopropoxy-N-pyrimidin-4-yl-propanamide] — within 1.5-fold, 0.54 µM
- Cc1ccc(NC(=O)[C@H](COC(C)C)Oc2ncnc3c2cnn3-c2ncccc2C)nc1 [Example 125, (2S)-3-Isopropoxy-N-(5-methylpyridin-2-yl)-2-(1-(3-methylpyridin-2-yl)-1H-pyrazolo[3,4-d]pyrimidin-4-yloxy)propanamide] — 1.8-fold lower, 0.31 µM
- Cc1ccc(NC(=O)[C@H](COC(C)C)Oc2ncnc3c2cnn3-c2ncccc2C(F)(F)F)nc1 [Example 126, (2S)-3-Isopropoxy-N-(5-methylpyridin-2-yl)-2-(1-(3-(trifluoromethyl)pyridin-2-yl)-1H-pyrazolo[3,4-d]pyrimidin-4-yloxy)propanamide] — within 1.5-fold, 0.57 µM
- Cc1ccc(NC(=O)[C@H](COC(C)C)Oc2ncnc3c2cnn3-c2ncccc2Cl)nn1 [Example 127, (2S)-2-[1-(3-chloro-2-pyridyl)pyrazolo[4,5-e]pyrimidin-4-yl]oxy-3-isopropoxy-N-(6-methylpyridazin-3-yl)propanamide] — 11-fold higher, 6 µM
- Cc1cccnc1-n1ncc2c(O[C@@H](COC(C)C)C(=O)Nc3ccc(C#N)cn3)ncnc21 [Example 127a, (2S)—N-(5-cyanopyridin-2-yl)-3-isopropoxy-2-(1-(3-methylpyridin-2-yl)-1H-pyrazolo[3,4-d]pyrimidin-4-yloxy)propanamide] — 2-fold higher, 1.1 µM
- Cc1cccnc1-n1ncc2c(O[C@@H](COC(C)C)C(=O)Nc3ccc(Cl)cn3)ncnc21 [Example 127b, (2S)—N-(5-chloropyridin-2-yl)-3-isopropoxy-2-(1-(3-methylpyridin-2-yl)-1H-pyrazolo[3,4-d]pyrimidin-4-yloxy)propanamide] — 1.5-fold higher, 0.84 µM
- CCOC[C@H](Oc1ncnc2c1cnn2-c1ncccc1Cl)C(=O)Nc1ccc(C#N)cn1 [Example 127c, (2S)-2-[1-(3-chloro-2-pyridyl)pyrazolo[4,5-e]pyrimidin-4-yl]oxy-N-(5-cyano-2-pyridyl)-3-ethoxy-propanamide] — within 1.5-fold, 0.67 µM
- CCOC[C@H](Oc1ncnc2c1cnn2-c1ncccc1Cl)C(=O)Nc1ccc(F)cn1 [Example 127d, (2S)-2-[1-(3-chloro-2-pyridyl)pyrazolo[4,5-e]pyrimidin-4-yl]oxy-3-ethoxy-N-(5-fluoro-2-pyridyl)propanamide] — within 1.5-fold, 0.67 µM
- CCOC[C@H](Oc1ncnc2c1cnn2-c1ncccc1Cl)C(=O)Nc1ccncn1 [Example 127f, (2S)-2-[1-(3-chloro-2-pyridyl)pyrazolo[4,5-e]pyrimidin-4-yl]oxy-3-ethoxy-N-pyrimidin-4-yl-propanamide] — 2-fold higher, 1.1 µM
- CCOC[C@H](Oc1ncnc2c1cnn2-c1ncccc1Cl)C(=O)Nc1ccc(Cl)cn1 [Example 127g, (2S)—N-(5-chloro-2-pyridyl)-2-[1-(3-chloro-2-pyridyl)pyrazolo[4,5-e]pyrimidin-4-yl]oxy-3-ethoxy-propanamide] — 1.8-fold lower, 0.3 µM
- CC(C)OC[C@H](Oc1ncnc2c1cnn2-c1ncccc1Cl)C(=O)Nc1nc(C#N)cs1 [Example 127h, (2S)-2-[1-(3-chloro-2-pyridyl)pyrazolo[4,5-e]pyrimidin-4-yl]oxy-N-(4-cyanothiazol-2-yl)-3-isopropoxy-propanamide] — 12-fold higher, 6.4 µM
- CC(C)OC[C@H](Oc1ncnc2c1cnn2-c1ncccc1Cl)C(=O)Nc1ccc(Cl)cn1 [Example 127i, (2S)—N-(5-chloro-2-pyridyl)-2-[1-(3-chloro-2-pyridyl)pyrazolo[4,5-e]pyrimidin-4-yl]oxy-3-isopropoxy-propanamide] — 1.5-fold lower, 0.36 µM
